How the values were obtained:
[1] = molecular target: T1, PYL3 (Arabidopsis thaliana, UniProt Q9SSM7); test: Protein dephosphorylation enzyme activity test, PYL3; assay type: biochemical, thale cress; conditions: control = 100%
T1 construct: 6xHis (N); made in house; host or cells: Escherichia coli BL21-codonplus(DE3)-RIPL (PYL); BL21(DE3)pLysS (HAB1)
T1 sequence (Q9SSM7 1-209): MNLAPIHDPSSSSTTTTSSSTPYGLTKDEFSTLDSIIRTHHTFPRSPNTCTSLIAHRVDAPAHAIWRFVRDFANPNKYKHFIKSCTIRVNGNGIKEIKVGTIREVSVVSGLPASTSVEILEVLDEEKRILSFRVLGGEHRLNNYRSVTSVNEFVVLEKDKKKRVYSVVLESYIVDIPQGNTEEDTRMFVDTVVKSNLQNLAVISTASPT
Description: (§1) A plasmid (pGex-2T-GST-HAB1 or pET28-6×His-PYL) encoded with PYR/PYL/RCAR proteins (PYL, abscisic acid receptor) or protein dephosphorylation enzyme HAB1 of thale cress was transformed to Escherichia coli (HAB1:BL21(DE3)pLysS, PYL:BL21-codonplus(DE3)-RIPL). Isopropyl-β-thiogalactopyranoside was added to the culture broth, which had been subjected to pre-culture (30° C., 180 rpm, 15 hours) and main culture (30° C., 180 rpm, 4 hours), and the protein-expressed (16° C., 150 rpm, 18 hours) crude enzyme solution was purified using FPLC thereby preparing the recombined PYL (PYR1, PYL1-6, PYL8-10) and HAB1. β-Mercaptoethanol, a manganese chloride aqueous solution, HAB1, PYL, a solution of the sample in dimethylsulfoxide and ultrapure water were sequentially added to a 96-well plate, allowed to stand at 22° C. for 30 minutes. Subsequently p-nitrophenylphosphate, which is the artificial substrate of HAB1, was added thereto to start the reaction, and the plate was placed in a microplate reader (TECAN, Infinite™ N200 NanoQuant). The absorbance at 405 nm due to p-nitrophenol, which is the hydrolysate of p-nitrophenylphosphate, was measured 3 minutes later from the reaction initiation, and HAB1 activity was calculated by the following formula (2). Note that the fraction to which only dimethylsulfoxide was added was considered to be the control and the activity thereof was defined as 100%. […] HAB1 specific activity (%)=Absorbance when sample was added/Absorbance of control×100 (2)

[2] = molecular target: T2, PYL4 (Arabidopsis thaliana, UniProt O80920); test: Protein dephosphorylation enzyme activity test, PYL4; assay type: biochemical, thale cress; conditions: control = 100%
T2 construct: 6xHis (N); made in house; host or cells: Escherichia coli BL21-codonplus(DE3)-RIPL (PYL); BL21(DE3)pLysS (HAB1)
T2 sequence (O80920 1-207): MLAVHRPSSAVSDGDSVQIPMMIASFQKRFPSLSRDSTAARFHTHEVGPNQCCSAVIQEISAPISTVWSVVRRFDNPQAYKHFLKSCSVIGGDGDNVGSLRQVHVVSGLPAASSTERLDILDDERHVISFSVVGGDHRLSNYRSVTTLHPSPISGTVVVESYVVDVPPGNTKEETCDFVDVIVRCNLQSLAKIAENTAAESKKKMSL
Description: as §1

[3] = molecular target: T3, PYL8 (Arabidopsis thaliana, UniProt Q9FGM1); test: Protein dephosphorylation enzyme activity test, PYL8; assay type: biochemical, thale cress; conditions: control = 100%
T3 construct: 6xHis (N); made in house; host or cells: Escherichia coli BL21-codonplus(DE3)-RIPL (PYL); BL21(DE3)pLysS (HAB1)
T3 sequence (Q9FGM1 1-188): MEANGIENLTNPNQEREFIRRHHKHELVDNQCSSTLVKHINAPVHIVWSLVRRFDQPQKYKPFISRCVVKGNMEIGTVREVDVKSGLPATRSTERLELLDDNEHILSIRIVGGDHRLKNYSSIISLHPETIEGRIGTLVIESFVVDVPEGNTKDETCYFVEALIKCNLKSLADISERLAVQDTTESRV
Description: as §1

[4] = molecular target: T4, PYL10 (Arabidopsis thaliana, UniProt Q8H1R0); test: Protein dephosphorylation enzyme activity test, PYL10; assay type: biochemical, thale cress; conditions: control = 100%
T4 construct: 6xHis (N); made in house; host or cells: Escherichia coli BL21-codonplus(DE3)-RIPL (PYL); BL21(DE3)pLysS (HAB1)
T4 sequence (Q8H1R0 1-183): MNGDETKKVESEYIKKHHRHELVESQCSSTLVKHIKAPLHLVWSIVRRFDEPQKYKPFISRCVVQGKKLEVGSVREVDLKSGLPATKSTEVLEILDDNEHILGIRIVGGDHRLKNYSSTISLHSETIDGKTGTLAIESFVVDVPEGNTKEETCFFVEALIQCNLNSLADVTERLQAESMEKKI
Description: as §1

[5] = molecular target: T5, recombined PYL5 (Arabidopsis thaliana, UniProt Q9FLB1); test: Bonding affinity measurement using an isothermal titration calorimeter; assay type: binding, thale cress; conditions: ITC, 20° C., sodium phosphate buffer
T5 construct: 6xHis (N); made in house; host or cells: Escherichia coli BL21-codonplus(DE3)-RIPL
T5 sequence (Q9FLB1 1-203): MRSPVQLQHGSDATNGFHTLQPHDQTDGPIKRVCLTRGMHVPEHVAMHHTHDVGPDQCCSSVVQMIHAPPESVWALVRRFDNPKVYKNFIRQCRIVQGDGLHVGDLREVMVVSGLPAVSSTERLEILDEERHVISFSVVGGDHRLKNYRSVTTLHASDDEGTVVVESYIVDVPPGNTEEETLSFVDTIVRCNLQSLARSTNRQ
Description: A sodium phosphate buffer solution of a recombined PYL5 was prepared in the same procedure as in Test Example 5, and put in a reaction cell of an isothermal titration calorimeter (GE Healthcare, MicroCal iTC200), and a sodium phosphate buffer solution of the compound of Example 1 was put in the syringe. Then, the calorimeter was set to 20° C. and the measurement was carded out. The same measurement as above was also carried out for the compounds of Examples 7 to 9.

HAB1 Specific activity (%) PYL3 ([1]; sample alone) [%]	HAB1 Specific activity (%) PYL4 ([2]; sample alone) [%]	HAB1 Specific activity (%) PYL8 ([3]; sample alone) [%]	HAB1 Specific activity (%) PYL10 ([4]; sample alone) [%]	Kd [5] [nM]	ΔG [5] [kcal/mol]	ΔH [5] [kcal/mol]	−TΔS [5] [kcal/mol]	HAB1 Specific activity (%) PYL3 ([1]; ABA + compound) [%]	HAB1 Specific activity (%) PYL4 ([2]; ABA + compound) [%]	HAB1 Specific activity (%) PYL8 ([3]; ABA + compound) [%]	HAB1 Specific activity (%) PYL10 ([4]; ABA + compound) [%]	Structure (SMILES)
121	119	98.5	99.0	70 ± 20	-9.6 ± 0.2	-5.5 ± 0.1	-4.2	61	101	98.7	82.5	CC1=C[C@@H](OCC#Cc2ccc(C)cc2)CC(C)(C)[C@@]1(O)/C=C/C(C)=C\C(=O)O [Example 7]
88.6	108	105	93.7	70 ± 20	-9.6 ± 0.1	-7.9 ± 0.1	-1.7	49.2	–	76.9	90.7	CC1=C[C@@H](OCC#Cc2ccccc2)CC(C)(C)[C@@]1(O)/C=C/C(C)=C\C(=O)O [Example 1, (2Z,4E)-5-((1S,4S)-1-hydroxy-2,6,6-trimethyl-4-((3-phenylprop-2-yn-1-yl)oxy)cyclohex-2-en-1-yl)-3-methylpenta-2,4-dienoic acid]

Structure (SMILES)	HAB1 Specific activity (%) PYL3 ([1]; sample alone) [%]	HAB1 Specific activity (%) PYL4 ([2]; sample alone) [%]	HAB1 Specific activity (%) PYL8 ([3]; sample alone) [%]	HAB1 Specific activity (%) PYL10 ([4]; sample alone) [%]	Kd [5] [nM]	ΔG [5] [kcal/mol]	ΔH [5] [kcal/mol]	−TΔS [5] [kcal/mol]	HAB1 Specific activity (%) PYL3 ([1]; ABA + compound) [%]	HAB1 Specific activity (%) PYL4 ([2]; ABA + compound) [%]	HAB1 Specific activity (%) PYL8 ([3]; ABA + compound) [%]	HAB1 Specific activity (%) PYL10 ([4]; ABA + compound) [%]
CC1=CC(=O)CC(C)(C)[C@@]1(O)/C=C/C(C)=C\C(=O)O [ABA, abscisic acid]	16.8	18.2	13.9	16.2	880 ± 110	-8.1 ± 0.1	-7.8 ± 0.1	-0.3	–	–	–	–
